Data taken from PubChem BioAssay (NCI).
Several values for one entry are separate records, joined by “and”; a condition that tells them apart may be missing. Equal values may be shown once.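 All cell lines were grown in 96-well plates and treated with compound for 48 hours. Here, GI50 denotes the concentration required for 50% inhibition of growth. At the TGI there is no net growth.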

Assays:
Assay in all cases: inhibition of tumour cell growth, NCI panel, 48 h
MDA-MB-435 = test system: MDA-MB-435
OVCAR-5 ovarian = test system: OVCAR-5 ovarian
DU-145 prostate = test system: DU-145 prostate
HL-60(TB) leukemia = test system: HL-60(TB) leukemia
A549 NSCLC = test system: A549 NSCLC
COLO 205 colon = test system: COLO 205 colon

| SMILES | GI50 (MDA-MB-435) | TGI (MDA-MB-435) | GI50 (OVCAR-5 ovarian) | TGI (OVCAR-5 ovarian) | GI50 (DU-145 prostate) | TGI (DU-145 prostate) | GI50 (HL-60(TB) leukemia) | TGI (HL-60(TB) leukemia) | GI50 (A549 NSCLC) | TGI (A549 NSCLC) | GI50 (COLO 205 colon) | TGI (COLO 205 colon) |
| --- | --- | --- | --- | --- | --- | --- | --- | --- | --- | --- | --- | --- |
| COc1cc2ncnc(Nc3ccc(F)c(Cl)c3)c2cc1NC(=O)/C=C/CN1CCCCC1 | 1.6 µM and 1.46 µM | 3.42 µM and 2.95 µM | 1.19 µM and 1.17 µM | 8.45 µM and > 8.15 µM | 0.365 µM and 0.401 µM | 11.4 µM and > 10 µM | 1.65 µM and 0.814 µM | 3.64 µM and 3.11 µM | 1.27 µM and 1.65 µM | 3.71 µM and > 8.03 µM | 1.68 µM and 2 µM | 3.43 µM and 4.18 µM |
| CN1C(=O)N(C)C2C1NN=c1s/c(=C\c3ccc(F)cc3)c(=O)n12 (configuration not stated) | 0.361 µM | 1.71 µM | 5.44 µM | > 100 µM | 3.22 µM | > 100 µM | 1.63 µM | 4.53 µM | 4.88 µM | > 100 µM | 2.51 µM | > 100 µM |
| O=C1C(c2ccccc2)=[N+]([O-])c2ccccc21 |  | 11.2 µM |  | 43.1 µM |  | 32.4 µM |  | 42.2 µM |  | 48.7 µM |  | 29.7 µM |
| O=c1cccc(C2CC(CO)C3CCCCN3C2)[nH]1 (configuration not stated) |  | > 100 µM |  | > 100 µM |  | > 100 µM |  | > 100 µM |  | > 100 µM |  | > 100 µM |
| CCN(CC)C(=S)Oc1cc2oc(=O)cc(C)c2cc1Cl |  | > 100 µM |  | > 100 µM |  | > 100 µM |  | > 100 µM |  | > 100 µM |  | > 100 µM |
| CC[PH+](CC)CC.O=COC1OC([S-])C(OC=O)C(OC=O)C1OC=O.[Au+] (configuration not stated) | 1.43 µM | 2.97 µM | 1.89 µM | 3.53 µM | 1.58 µM | 3.33 µM | 2.6 µM | 6.6 µM |  |  | 2.23 µM | 4.7 µM |
| COc1ccc2cc(-c3c(-c4ccncc4)nc(-c4ccc(S(C)(=O)=O)cc4C)n3C)ccc2c1 | 9.18 µM | > 25 µM | 14.7 µM | > 25 µM | 10.2 µM | > 25 µM | 6.54 µM | 21.7 µM | 9.04 µM | > 25 µM | 8.25 µM | > 20.1 µM |
| C=CC(=O)Nc1cc2c(Nc3ccc(F)c(Cl)c3)ncnc2cc1OCCCN1CCOCC1 | 2.67 µM and 4.1 µM | 12 µM and > 10 µM | 0.879 µM and 5.82 µM | 16.3 µM and > 10 µM | 0.159 µM and 0.741 µM | 12.2 µM and > 10 µM | 2 µM and 1.73 µM | 4.88 µM and 7.33 µM | 2.37 µM and 5.1 µM | 17 µM and > 10 µM | 2.42 µM and 4.59 µM | 7.32 µM and > 10 µM |
| O=C1c2cc(Cl)ccc2-c2c1c1ccc([N+](=O)[O-])cc1c(=O)n2CCCBr | 14.9 µM | > 100 µM | > 100 µM | > 100 µM | 4 µM | > 100 µM | 1.26 µM | 5.71 µM | 5.85 µM | > 100 µM | 3.37 µM | > 100 µM |
| Cc1cc2c(cc1Cl)SC1=NN(C)C(N(C)C)N1S2(=O)=O (configuration not stated) | > 100 µM | > 100 µM | > 100 µM | > 100 µM | > 100 µM | > 100 µM | > 100 µM | > 100 µM | > 100 µM | > 100 µM | > 100 µM | > 100 µM |
| COc1cc(C(=O)Nc2cc3c(cc2Oc2cc(C)cc(C)c2)C(=O)N(C)[C@@H](CC(=O)N(C)O)C(=O)N3)c(Br)c(OC)c1OC | < 0.00333 µM | 0.00351 µM | < 0.00333 µM | 0.00751 µM | < 0.00333 µM | 0.00428 µM | < 0.00333 µM | < 0.00333 µM | < 0.00333 µM | 0.00742 µM |  |  |
| COc1ccc(C2=NN(C=O)C(c3cccc(Nc4ccnc5cc(Cl)ccc45)c3)C2)cc1 (configuration not stated) | 0.37 µM | 13.1 µM | 11.3 µM | > 100 µM | 3.62 µM | 89.3 µM | 2.03 µM | 4.91 µM | 4.63 µM | > 100 µM | 2.4 µM | 9.88 µM |
| CCOC(=O)/C=C/C1=C(c2cccs2)c2ccccc2CC1 | 20.6 µM | 51.3 µM | 35.9 µM | > 100 µM | 22.6 µM | 58.6 µM | 45 µM | > 100 µM | 33.8 µM | > 100 µM | 17 µM | 46.3 µM |
| COc1cc(-c2cn(-c3ccc(Cl)c(Cl)c3)c(=O)n2C(C)=O)cc(OC)c1OC | 14.2 µM | 35 µM | 13 µM | 27.3 µM | 5.32 µM | 18.2 µM | 14.2 µM | 33.9 µM | 15 µM | 41 µM | 7.9 µM | 21.7 µM |
| Nc1ccccc1C#C/C=C\C#Cc1ccccc1 | 2.64 µM | 6.31 µM | 15.5 µM | 51.6 µM | 12.2 µM | 38.3 µM | 13.7 µM | > 100 µM | 17.8 µM | 77.7 µM | 14.9 µM | 29.3 µM |
| Fc1cc2[nH]ncc2c2c3c(c(-c4cn[nH]c4C(F)(F)F)nc12)C1CCC3C1 (configuration not stated) | 1.52 µM | 7.14 µM | 1.19 µM | 3.72 µM | 1.12 µM | 7.52 µM | 1.1 µM | 2.6 µM | 1.07 µM | 4.41 µM | 0.874 µM | 2.24 µM |
| COc1ccc(-c2ccc(-c3ccc(C(=N)N)cn3)o2)cc1 | 2.18 µM | 4.97 µM | 10.9 µM | 23.7 µM | 11.3 µM | 24.7 µM | 2.14 µM | 5.7 µM | 5.1 µM | 18.7 µM | 1.82 µM | 3.68 µM |
| CCn1c(-c2nonc2N)nc2c(C#CC(C)(C)O)nc(OCCNC)cc21 | 8.58 µM | > 25 µM | 7.99 µM | 24.9 µM | 8.53 µM | > 25 µM | 7.78 µM | 18.2 µM | 8.27 µM | > 25 µM | 4.84 µM | 10.3 µM |
| O=C(O)C1CCCCC1C(=O)O.[NH-]C1CCC1.[NH2-].[Pt+2] (configuration not stated) | 15.7 µM | 29.3 µM | 18.3 µM | 34 µM | 12.5 µM | 25 µM | 5.98 µM | 52.8 µM | 30.7 µM | > 100 µM | 10.3 µM | 24.6 µM |
| Nc1ccc(C(=O)CC(N)C(=O)O)cc1O (configuration not stated) |  | > 100 µM |  | > 100 µM |  | > 100 µM |  | > 100 µM |  | > 100 µM |  | > 100 µM |
